# Tested on: backs of 16 test persons
# Experiment: In vivo test for antiperspirant activity (sauna sweat test, gravimetric)
# Parameters: species or system human
# Conditions: 5.0% by weight aqueous solution, 75 μL applied on the back on four consecutive days; measured 24 h after last application; about 15 minutes at 80° C. in the sauna; gravimetric vs untreated site; 16 subjects
# Protocol: 1. In Vivo Test for Antiperspirant Activity
# To determine the antiperspirant effect, an antiperspirant study was performed on the backs of 16 test persons. A 5.0% by weight aqueous solution of a phosphonate compound of the Formula (I) with a=b=1, R=*—(CH2)x—PO3X^+Y^+ group where x=1 and X^+=Y^+=hydrogen or Na^+ was prepared for this purpose.
# 75 μL of the prepared solution were applied on the back of 16 subjects on one side next to the spine. After 5 minutes, the treated sites were covered with occlusive non-adsorbent film. These non-adsorbent pads were removed after 2 hours. The compositions were each applied to the backs of the subjects for four consecutive days in the manner previously described. 24 h after the last application of the composition, absorbent pads were applied to the backs of the subjects at the sites where the compositions were previously applied. Furthermore, pads, which served as a control, were also applied on the other side of the spine at the same height. After the subjects had sweat for about 15 minutes at 80° C. in the sauna, the amount of perspiration absorbed by the pads was determined gravimetrically, wherein each composition was compared with the corresponding untreated site on the back. The sweat reduction was determined from the gravimetric determination of the amount of sweat, wherein all determined values were statistically significant.
smiles,measurement,value
"O=P(O)(O)CN(CP(=O)(O)O)CP(=O)(O)O [phosphonate compound of Formula (I), aminotrimethylene phosphonate]",sweat reduction,10.1%
